We go through three molecules from US20110152313A1 (MACQUARIE UNIVERSITY, priority 2008, published 2011).

One assay concerns the target T1, DRAK1 (Homo sapiens, UniProt Q9UEE5).
T1 sequence (Q9UEE5 1-414): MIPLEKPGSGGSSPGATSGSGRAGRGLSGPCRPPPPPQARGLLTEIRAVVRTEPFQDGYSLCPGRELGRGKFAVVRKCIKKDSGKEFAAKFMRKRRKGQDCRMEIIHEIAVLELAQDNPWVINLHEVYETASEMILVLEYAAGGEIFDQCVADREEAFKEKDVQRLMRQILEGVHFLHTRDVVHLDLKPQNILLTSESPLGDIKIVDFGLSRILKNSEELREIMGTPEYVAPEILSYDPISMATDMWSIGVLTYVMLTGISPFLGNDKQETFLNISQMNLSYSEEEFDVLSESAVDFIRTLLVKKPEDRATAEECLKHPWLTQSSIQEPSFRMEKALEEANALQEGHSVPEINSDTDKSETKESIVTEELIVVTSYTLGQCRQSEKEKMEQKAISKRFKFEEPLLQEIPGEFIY
In words: kinase binding screen (kinase-tagged T7 phage, qPCR), % Ctrl. The procedure: (§1) Percentage kinase inhibition at a set concentration was performed by methods well known in the prior art (Fabian, M. A. et al. Nat. Biotechnol. 2005, 23, 329; Karaman et al. (2008) Nat. Biotechnol. […], 26, 127). Briefly, kinase-tagged T7 phage strains were grown in parallel in 24-well blocks in an E. coli host derived from the BL21 strain. E. coli were grown to log-phase and infected with T7 phage from a frozen stock (multiplicity of infection=0.4) and incubated with shaking at 32° C. until lysis (90-150 minutes). The lysates were centrifuged (6,000×g) and filtered (0.2 μm) to remove cell debris. […] The liganded beads were blocked with excess biotin and washed with blocking buffer (SeaBlock (Pierce); 1% BSA, 0.05% Tween 20, 1 mM DTT) to remove unbound ligand and to reduce non-specific phage binding. […] Test compounds were prepared as 40× stocks in 100% DMSO and directly diluted into the assay. All reactions were performed in polypropylene 384-well plates in a final volume of 0.04 mL. […] The kinase concentration in the eluates was measured by qPCR.

The target in the next assay is T2, YSK4 (Homo sapiens, UniProt Q56UN5).
T2 sequence (Q56UN5 1-1328): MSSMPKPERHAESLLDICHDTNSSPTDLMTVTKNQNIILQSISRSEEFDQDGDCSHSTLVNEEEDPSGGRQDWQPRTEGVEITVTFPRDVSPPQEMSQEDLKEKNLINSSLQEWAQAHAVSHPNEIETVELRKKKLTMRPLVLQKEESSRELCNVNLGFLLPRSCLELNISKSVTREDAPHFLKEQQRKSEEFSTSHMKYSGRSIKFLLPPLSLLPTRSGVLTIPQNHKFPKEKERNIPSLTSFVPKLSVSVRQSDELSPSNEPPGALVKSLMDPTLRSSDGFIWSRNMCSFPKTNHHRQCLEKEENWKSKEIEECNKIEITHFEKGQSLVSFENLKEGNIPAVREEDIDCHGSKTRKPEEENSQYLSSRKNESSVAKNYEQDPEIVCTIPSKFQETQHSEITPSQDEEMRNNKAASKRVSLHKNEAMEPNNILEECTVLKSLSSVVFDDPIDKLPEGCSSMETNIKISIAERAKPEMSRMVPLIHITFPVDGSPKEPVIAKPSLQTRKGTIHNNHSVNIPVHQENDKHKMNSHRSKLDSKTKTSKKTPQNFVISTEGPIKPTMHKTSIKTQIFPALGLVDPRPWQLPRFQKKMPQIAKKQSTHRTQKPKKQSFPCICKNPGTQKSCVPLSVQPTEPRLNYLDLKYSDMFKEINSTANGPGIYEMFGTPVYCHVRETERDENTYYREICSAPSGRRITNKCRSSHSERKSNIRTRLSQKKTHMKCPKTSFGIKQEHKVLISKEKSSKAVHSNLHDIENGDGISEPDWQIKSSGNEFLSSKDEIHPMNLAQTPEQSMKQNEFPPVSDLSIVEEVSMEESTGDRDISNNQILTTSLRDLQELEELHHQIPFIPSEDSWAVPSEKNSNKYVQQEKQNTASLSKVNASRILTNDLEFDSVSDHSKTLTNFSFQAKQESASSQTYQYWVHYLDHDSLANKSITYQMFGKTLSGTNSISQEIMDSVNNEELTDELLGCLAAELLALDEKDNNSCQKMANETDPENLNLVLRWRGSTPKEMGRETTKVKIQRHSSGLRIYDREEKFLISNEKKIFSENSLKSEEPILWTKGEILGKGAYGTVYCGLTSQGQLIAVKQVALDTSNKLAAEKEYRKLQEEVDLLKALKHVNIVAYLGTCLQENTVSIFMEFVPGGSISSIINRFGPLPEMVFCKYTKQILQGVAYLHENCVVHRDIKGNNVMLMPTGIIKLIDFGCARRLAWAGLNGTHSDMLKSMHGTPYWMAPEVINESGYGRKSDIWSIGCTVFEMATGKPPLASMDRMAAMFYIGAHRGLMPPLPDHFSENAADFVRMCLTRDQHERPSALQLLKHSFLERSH
Described as above. As for the experimental part: as §1

By remaining activity is commonly meant the signal under treatment as a percentage of the control signal. With `Nc1nc2c(-c3cc(Br)c(Br)[nH]3)nccc2[nH]1` [Ageladine A, ageladine A, reference compound], the remaining activity at 1 µM turned out to be 78% at DRAK1 and 56% on YSK4. Also, the remaining activity at 10 µM came to 86% at DRAK1 (10 μM) and 5.1% on YSK4 (10 μM).
Regarding `Nc1nc2c(-c3ccccn3)nccc2[nH]1` [drawing 35, 4-(pyrid-2-yl)-1H-imidazo[4,5-c]pyridin-2-amine], the remaining activity at 1 µM was 56% on DRAK1 and 16% at YSK4.
On to `Nc1nc2c(-c3cnc4ccccc4c3)nccc2[nH]1` [drawing 36, 4-(quinolin-3-yl)-1H-imidazo[4,5-c]pyridin-2-amine], for which the values for the remaining activity at 1 µM on DRAK1 and at YSK4 were 100% and 82%, respectively.
